Values joined by “and” are separate entries in the source; they are usually repeats but may differ in a detail not shown here. Equal entries are not always repeated. Where two headings read alike, the source gives them in different places.
Experiments:
E. faecium [1] = experiment: Antibacterial activity evaluation (turbidity, OD600); format: cell-based, Enterococcus faecium (JCM5804); conditions: Enterococcus faecium, E. faecium JCM5804
Experimental: (§1) E. faecium and E. faecalis were diluted to turbidity equivalents that matched 1.0 McFarland (McF) standard in distilled water (S. aureus and E. coli were also diluted to 0.5 McF), and additionally diluted 1:200 in Mueller–Hinton (MH) broth. The designated concentrations of the tested compounds were prepared by ten-fold serial dilutions directly in 96-well microtiter plates (IWAKI, Shizuoka, Japan), as previously described. […] The other compounds were serially diluted from 20 μM downwards (final concentration, 10 μM). […] Positive control wells included bacteria without any compound, and the negative control wells only contained MH broth. […] The optical density at 600 nm (OD600) was measured using a GloMax microtiter plate reader (Promega, WI, USA), and the EC50 values of each test compound and standard error were calculated by Microsoft Excel function, AVERAGE and STDEV/SQRT.

E. faecalis = experiment: as above; format: cell-based, Enterococcus faecalis (JCM7783); conditions: Enterococcus faecalis, E. faecalis JCM7783
Experimental: as §1

S. aureus = experiment: as above; format: cell-based, Staphylococcus aureus (ATCC29213); conditions: Staphylococcus aureus, S. aureus ATCC29213
Experimental: as §1

E. coli = experiment: as above; format: cell-based, Escherichia coli (ATCC25922); conditions: Escherichia coli, E. coli ATCC25922
Experimental: as §1

E. faecium [2] = experiment: Antibacterial assay with an excess concentration of biomolecules (Ser, Gly, inosine, dT, FA); format: cell-based, Enterococcus faecium (JCM5804); conditions: Enterococcus faecium, JCM5804, E. faecium JCM5804
Experimental: as §1
The ratio of the control EC50 (no competitors added) to the experimental EC50 (competitors added) was calculated for each test substance.

E. faecium [3] = experiment: Bacterial viability assay (Microbial Viability Assay Kit-WST, OD450); format: cell-based, Enterococcus faecium
Experimental: Living E. faecium were determined using the Microbial Viability Assay Kit-WST (DOJINDO, Tokyo, Japan). […] Positive control wells included bacteria seeded into MH broth without compounds, and the negative control wells contained MH broth only. […] Five microlitres of the colouring reagent were added to each well of the 96-well plate every 2 h after starting incubation with each compound.

Caski cells = experiment: Cell cytotoxicity assay (Cell Counting Kit-8, 5 days); format: cell-based, human; conditions: with each cell line (Caski, Hep-2 and Calu-3)
Experimental: After serial dilution, 100 μL of FBS-containing medium including the cells was added to each well of the plate. […] All CC50 determining assays were conducted in duplicate or triplicate[39],[40].

[4] = read-out: pEC50 ± S.E. (converted)
[5] = 1 mM Inosine, read-out: pEC50 ± S.E. (converted)
[6] = 1 mM deoxythymidine, read-out: EC50
[7] = 1 mM deoxythymidine, read-out: pEC50 ± S.E. (converted)
[8] = 10 mM Glycine, read-out: pEC50 ± S.E. (converted)
[9] = 100 mM Serine, read-out: pEC50 ± S.E. (converted)
[10] = 0.1 M folate, read-out: pEC50 ± S.E. (converted)

Row | EC50 (E. faecium [1]; read-out: EC50) [nM] | EC50 (E. faecium [1]; [4]) [nM] | EC50 (E. faecalis; read-out: EC50) [nM] | EC50 (E. faecalis; [4]) [nM] | EC50 (S. aureus; read-out: EC50) [nM] | EC50 (S. aureus; [4]) [nM] | EC50 (E. coli; read-out: EC50) [nM] | EC50 (E. coli; [4]) [nM] | EC50 (E. faecium [2]; 1 mM Inosine, read-out: EC50) [nM] | EC50 (E. faecium [2]; [5]) [nM] | EC50 (E. faecium [2]; [6]) [nM] | EC50 (E. faecium [2]; [7]) [nM] | EC50 (E. faecium [2]; 10 mM Glycine, read-out: EC50) [nM] | EC50 (E. faecium [2]; [8]) [nM] | EC50 (E. faecium [2]; 100 mM Serine, read-out: EC50) [nM] | EC50 (E. faecium [2]; [9]) [nM] | EC50 (E. faecium [2]; 0.1 M folate, read-out: EC50) [nM] | EC50 (E. faecium [2]; [10]) [nM] | SMILES | other results
1 | 29 | 31.6 | 310 | 316 | 8.9 | 7.94 | 10000 | 10000 | 24 | 25.1 | > 100000 | > 100000 | 6.4 | 6.31 | 32 | 31.6 | 190 | 200 | O=c1[nH]c(=O)n([C@H]2C[C@H](O)[C@@H](CO)O2)cc1F [5-FdU, 5-fluoro-2′-deoxyuridine] | –
2 | – | – | – | – | – | – | – | – | – | – | – | – | – | – | – | – | – | – | NCC(=O)O [glycine] | Relative bacterial viability (E. faecium [3]; 50 mM glycine (Supplementary Fig. S2)): ~ 0.75; Relative bacterial viability (E. faecium [3]; 100 mM glycine (Supplementary Fig. S2)): ~0.40
3 | 2.8 | 2.51 | 270 | 251 | 290 | 316 | 170 | 158 | – | 2.51 | 54000 | 50100 | 2.1 | 2 | 3.3 | 3.16 | 41 | 50.1 | COc1cc(Cc2cnc(N)nc2N)cc(OC)c1OC [TMP, trimethoprim] | Relative bacterial viability (E. faecium [3]; 2 nM, 0 hours, single values): 0.02108 and 0.02214 and 0.02363 and 0.02319 and 0.01396 and 0.01461 and 0.0211 and 0.02201; Relative bacterial viability (E. faecium [3]; 2 nM, 2 hours, single values): 0.03256 and 0.03276 and 0.0358 and 0.03793 and 0.02817 and 0.0276 and 0.03152 and 0.02983; Relative bacterial viability (E. faecium [3]; 2 nM, 8 hours, single values): 0.6778 and 0.6938 and 0.7383 and 0.6754 and 0.6268 and 0.6594 and 0.6905 and 0.6243; Relative bacterial viability (E. faecium [3]; 2 nM, 10 hours, single values): 0.7078 and 0.7215 and 0.7487 and 0.6774; Relative bacterial viability (E. faecium [3]; 2 nM, 12 hours, single values): 0.7931 and 0.8524 and 0.8435 and 0.6543 and 0.7061 and 0.7294 and 0.7396 and 0.7126; Relative bacterial viability (E. faecium [3]; 2 nM, 14 hours, single values): 0.8722 and 0.7867 and 0.9195 and 0.9126 and 0.8033 and 0.8796 and 0.8243 and 0.8853; Relative bacterial viability (E. faecium [3]; 20 nM, 0 hours, single values): 0.02896 and 0.02213 and 0.01772 and 0.01904 and 0.02117 and 0.02218 and 0.02462 and 0.0192; Relative bacterial viability (E. faecium [3]; 20 nM, 2 hours, single values): 0.03873 and 0.03054 and 0.0347 and 0.03215 and 0.02983 and 0.02843 and 0.03279 and 0.02955; Relative bacterial viability (E. faecium [3]; 20 nM, 4 hours, single values): 0.0705 and 0.06896 and 0.0607 and 0.07039 and 0.05304 and 0.06167 and 0.06352 and 0.06901; Relative bacterial viability (E. faecium [3]; 20 nM, 6 hours, single values): 0.09036 and 0.1064 and 0.1059 and 0.1127 and 0.1209 and 0.1443 and 0.152 and 0.1417; Relative bacterial viability (E. faecium [3]; 20 nM, 8 hours, single values): 0.1279 and 0.1203 and 0.1189 and 0.109 and 0.09529 and 0.09698 and 0.1178 and 0.11; Relative bacterial viability (E. faecium [3]; 20 nM, 10 hours, single values): 0.1127 and 0.1159 and 0.1045 and 0.09171 and 0.08771 and 0.09868 and 0.1124 and 0.1197; Relative bacterial viability (E. faecium [3]; 20 nM, 12 hours, single values): 0.09851 and 0.09831 and 0.1104 and 0.1131 and 0.09658 and 0.1085 and 0.1167 and 0.1091; EC50 (E. faecium [3]; Enterococcus faecium, relative bacterial viability after 14 h incubation): 8.8 nM; selectivity index (S.I.): CC50 against each cell line / EC50 against E. faecium (Caski cells): high bacterial selectivity
4 | 73 | 79.4 | 380 | 398 | 30 | 31.6 | 10000 | 10000 | 720 | 794 | 21000 | 20000 | 65 | 79.4 | 98 | 100 | 270 | 251 | O=c1[nH]c(=O)n([C@@H]2O[C@H](CO)[C@@H](O)[C@H]2O)cc1F [5-FUrd, 5-fluorouridine] | –

Source: PMC9223267, “Serine hydroxymethyltransferase as a potential target of antibacterial agents acting synergistically with one-carbon metabolism-related inhibitors” (Communications Biology, 2022)
